Experimental data taken from PubChem BioAssay AID218 (DTP/NCI, 2004).
Values joined by “and” are separate entries in the source; they are usually repeats but may differ in a detail not shown here. Identical values can stand only once.

Test system: C57BL/6 mice, Adenocarcinoma 755 sc, tumor weight T/C
Test: NCI In Vivo Anticancer Drug Screen. Data for tumor model Adenocarcinoma 755 (subcutaneous) in C57BL/6 mice
Details: endpoint: mean tumor weight, higher = larger tumour
Procedure: The antitumor activity of compounds was measured in mice bearing transplantable tumors. Survival or tumor size were measured and the results are expressed as the measurement made in the treated group (T) divided by the measurement made in the vehicle treated control group (C). The tumor model used in this assay is Adenocarcinoma 755 (subcutaneous) in C57BL/6 mice

[1] = dose: 2.5 mg/kg/injection, schedule: Q01DX011 (ip), vehicle: saline
[2] = dose: 5.0 mg/kg/injection, schedule: Q01DX011 (ip), vehicle: saline
[3] = dose: 10.0 mg/kg/injection, schedule: Q01DX011 (ip), vehicle: saline
[4] = dose: 20.0 mg/kg/injection, schedule: Q01DX011 (ip), vehicle: saline
[5] = dose: 40.0 mg/kg/injection, schedule: Q01DX011 (ip), vehicle: saline
[6] = dose: 100.0 mg/kg/injection, schedule: Q01DX011 (ip), vehicle: saline
[7] = dose: 200.0 mg/kg/injection, schedule: Q01DX011 (ip), vehicle: saline
[8] = dose: 4.0 mg/kg/injection, schedule: Q01DX011 (ip), vehicle: saline
[9] = dose: 8.0 mg/kg/injection, schedule: Q01DX011 (ip), vehicle: saline

SMILES: C[N+](C)(C)c1ncnc2nc[nH]c12
- T/C (dose: 1.25 mg/kg/injection, schedule: Q#A X022 (ip), vehicle: saline): 95 % of control
- T/C [1]: 109 % of control
- T/C (dose: 2.5 mg/kg/injection, schedule: Q01DX011 (sc), vehicle: saline): 56 % of control
- T/C (dose: 2.5 mg/kg/injection, schedule: Q#A X022 (ip), vehicle: saline): 93 % of control
- T/C [2]: 52 % of control
- T/C (dose: 5.0 mg/kg/injection, schedule: Q01DX011 (sc), vehicle: saline): 34 % of control
- T/C (dose: 5.0 mg/kg/injection, schedule: Q#A X022 (ip), vehicle: saline): 40 % of control
- T/C (dose: 7.5 mg/kg/injection, schedule: Q03DX004 (ip), vehicle: saline): 77 % of control
- T/C (dose: 10.0 mg/kg/injection, schedule: Q01DX006 (iv), vehicle: saline): 50 % of control
- T/C [3]: 12 % of control and 18 % of control
- T/C (dose: 10.0 mg/kg/injection, schedule: Q01DX011 (oral), vehicle: saline): 58 % of control
- T/C (dose: 10.0 mg/kg/injection, schedule: Q01DX011 (sc), vehicle: saline): 34 % of control
- T/C (dose: 10.0 mg/kg/injection, schedule: Q02DX006 (im), vehicle: saline): 54 % of control
- T/C (dose: 10.0 mg/kg/injection, schedule: Q#A X022 (ip), vehicle: saline): 13 % of control and 18 % of control
- T/C (dose: 15.0 mg/kg/injection, schedule: Q03DX004 (ip), vehicle: saline): 76 % of control
- T/C [4]: 6 % of control and 11 % of control and 18 % of control
- T/C (dose: 20.0 mg/kg/injection, schedule: Q01DX011 (oral), vehicle: saline): 43 % of control
- T/C (dose: 20.0 mg/kg/injection, schedule: Q01DX011 (sc), vehicle: saline): 8 % of control and 16 % of control
- T/C (dose: 20.0 mg/kg/injection, schedule: Q02DX006 (im), vehicle: saline): 50 % of control
- T/C (dose: 20.0 mg/kg/injection, schedule: Q#A X022 (ip), vehicle: saline): 8 % of control
- T/C (dose: 30.0 mg/kg/injection, schedule: Q03DX004 (ip), vehicle: saline): 32 % of control
- T/C (dose: 40.0 mg/kg/injection, schedule: Q01DX006 (iv), vehicle: saline): 42 % of control
- T/C [5]: 6 % of control and 9 % of control
- T/C (dose: 40.0 mg/kg/injection, schedule: Q01DX011 (oral), vehicle: saline): 12 % of control and 18 % of control
- T/C (dose: 40.0 mg/kg/injection, schedule: Q01DX011 (sc), vehicle: saline): 7 % of control
- T/C (dose: 40.0 mg/kg/injection, schedule: Q02DX006 (im), vehicle: saline): 39 % of control
- T/C (dose: 60.0 mg/kg/injection, schedule: Q03DX004 (ip), vehicle: saline): 16 % of control and 18 % of control
- T/C (dose: 75.0 mg/kg/injection, schedule: Q01DX001 (ip), vehicle: saline): 76 % of control and 85 % of control
- T/C (dose: 80.0 mg/kg/injection, schedule: Q01DX006 (iv), vehicle: saline): 15 % of control
- T/C (dose: 80.0 mg/kg/injection, schedule: Q01DX011 (ip), vehicle: saline): 5 % of control
- T/C (dose: 80.0 mg/kg/injection, schedule: Q01DX011 (oral), vehicle: saline): 5 % of control and 10 % of control and 17 % of control
- T/C (dose: 80.0 mg/kg/injection, schedule: Q01DX011 (sc), vehicle: saline): 5 % of control
- T/C (dose: 80.0 mg/kg/injection, schedule: Q02DX006 (im), vehicle: saline): 20 % of control
- T/C (dose: 120.0 mg/kg/injection, schedule: Q03DX004 (ip), vehicle: saline): 10 % of control
- T/C (dose: 150.0 mg/kg/injection, schedule: Q01DX001 (ip), vehicle: saline): 47 % of control and 48 % of control
- T/C (dose: 160.0 mg/kg/injection, schedule: Q01DX011 (oral), vehicle: saline): 8 % of control
- T/C (dose: 160.0 mg/kg/injection, schedule: Q01DX011 (sc), vehicle: saline): 4 % of control
- T/C (dose: 300.0 mg/kg/injection, schedule: Q01DX001 (ip), vehicle: saline): 33 % of control and 40 % of control
- T/C (dose: 320.0 mg/kg/injection, schedule: Q01DX011 (oral), vehicle: saline): 5 % of control

SMILES: Oc1ccc2ccccc2c1N=Nc1ccc(F)cc1
- T/C (dose: 6.25 mg/kg/injection, schedule: Q01DX011 (ip), vehicle: saline): 55 % of control
- T/C (dose: 12.5 mg/kg/injection, schedule: Q01DX011 (ip), vehicle: saline): 45 % of control
- T/C (dose: 25.0 mg/kg/injection, schedule: Q01DX011 (ip), vehicle: saline): 37 % of control
- T/C (dose: 50.0 mg/kg/injection, schedule: Q01DX011 (ip), vehicle: saline): 30 % of control and 35 % of control
- T/C [6]: 28 % of control
- T/C [7]: 12 % of control
- T/C (dose: 400.0 mg/kg/injection, schedule: Q01DX011 (ip), vehicle: saline): 28 % of control

SMILES: O=C(O)CCCc1ccc(N(CCCl)CCCl)cc1
- T/C (dose: 1.0 mg/kg/injection, schedule: Q01DX011 (ip), vehicle: saline): 73 % of control
- T/C [8]: 80 % of control
- T/C [9]: 51 % of control
- T/C (dose: 16.0 mg/kg/injection, schedule: Q01DX011 (ip), vehicle: saline): 98 % of control

SMILES: N=[N+]=CC(=O)OCC(N)C(=O)O (stereo unspecified)
- T/C [8]: 31 % of control
- T/C [9]: 46 % of control

SMILES: Nc1nc(SCc2ccccc2)c2[nH]cnc2n1
- T/C [1]: 17 % of control
- T/C [2]: 5 % of control
- T/C [3]: 2 % of control

SMILES: Cn1cc(NC(=O)c2cc(NC(=O)CN=C(N)N)cn2C)cc1C(=O)NCCC(=N)N
- T/C (dose: 20.0 mg/kg/injection, schedule: Q02DX006 (ip), vehicle: water): 95 % of control
- T/C (dose: 25.0 mg/kg/injection, schedule: Q02DX006 (ip), vehicle: water): 69 % of control
- T/C (dose: 30.0 mg/kg/injection, schedule: Q02DX006 (ip), vehicle: water): 31 % of control

SMILES: CCOC(C)C(/C=N/NC(N)=S)=NNC(N)=S (stereo unspecified)
- T/C (dose: 120.0 mg/kg/injection, schedule: Q01DX011 (ip), vehicle: saline): 59 % of control

SMILES: S=c1[nH]c(=S)c2[nH]cnc2[nH]1
- T/C [6]: 13 % of control
- T/C [7]: 7 % of control

SMILES: CC[N+](CC)(CC)CCO
- T/C (dose: 5.0 mg/kg/injection, schedule: Q02DX006 (ip), vehicle: saline): 51 % of control
- T/C (dose: 10.0 mg/kg/injection, schedule: Q02DX006 (ip), vehicle: saline): 25 % of control
- T/C (dose: 15.0 mg/kg/injection, schedule: Q02DX006 (ip), vehicle: saline): 33 % of control

SMILES: Nc1nc(=O)[nH]c2n[nH]nc12
- T/C (dose: 5.0 mg/kg/injection, schedule: Q01DX011 (ip), vehicle: carboxymethylcellulose (CMC)): 82 % of control
- T/C (dose: 10.0 mg/kg/injection, schedule: Q01DX011 (ip), vehicle: carboxymethylcellulose (CMC)): 79 % of control
- T/C (dose: 25.0 mg/kg/injection, schedule: Q01DX011 (ip), vehicle: carboxymethylcellulose (CMC)): 64 % of control

SMILES: COC(=O)C(N)CCl (stereo unspecified)
- T/C (dose: 150.0 mg/kg/injection, schedule: Q02DX006 (ip), vehicle: saline): 74 % of control
- T/C (dose: 200.0 mg/kg/injection, schedule: Q02DX006 (ip), vehicle: saline): 83 % of control

SMILES: C[C@@H]1CC2=CC(=O)C=C[C@]2(C)[C@H]2CC[C@@]3(C)[C@@H](CC[C@]3(C)O)[C@H]12
- T/C (dose: 50.0 mg/kg/injection, schedule: Q01DX011 (sc), vehicle: steriod suspending solution): 70 % of control
- T/C (dose: 100.0 mg/kg/injection, schedule: Q01DX011 (sc), vehicle: steriod suspending solution): 73 % of control
- T/C (dose: 200.0 mg/kg/injection, schedule: Q01DX011 (sc), vehicle: steriod suspending solution): 58 % of control
- T/C (dose: 400.0 mg/kg/injection, schedule: Q01DX011 (sc), vehicle: steriod suspending solution): 29 % of control

SMILES: Clc1ncnc2nc[nH]c12
- T/C (dose: 37.5 mg/kg/injection, schedule: Q01DX011 (ip), vehicle: saline): 1 % of control

SMILES: Nc1nc(=S)c2[nH]cnc2[nH]1
- T/C (dose: 0.06 mg/kg/injection, schedule: Q01DX011 (ip), vehicle: carboxymethylcellulose (CMC)): 81 % of control
- T/C (dose: 0.13 mg/kg/injection, schedule: Q01DX011 (ip), vehicle: carboxymethylcellulose (CMC)): 111 % of control
- T/C (dose: 0.25 mg/kg/injection, schedule: Q01DX011 (ip), vehicle: carboxymethylcellulose (CMC)): 18 % of control
- T/C (dose: 0.5 mg/kg/injection, schedule: Q01DX011 (ip), vehicle: carboxymethylcellulose (CMC)): 7 % of control and 8 % of control
- T/C (dose: 0.5 mg/kg/injection, schedule: Q01DX011 (ip), vehicle: saline): 3 % of control
- T/C (dose: 1.0 mg/kg/injection, schedule: Q01DX011 (ip), vehicle: carboxymethylcellulose (CMC)): 7 % of control

SMILES: O=C([O][Hg][CH2]C1COC([CH2][Hg][O]C(=O)c2ccccc2)CO1)c1ccccc1 (stereo unspecified)
- T/C (dose: 16.0 mg/kg/injection, schedule: Q01DX009 (ip), vehicle: saline): 82 % of control
- T/C (dose: 32.0 mg/kg/injection, schedule: Q01DX009 (ip), vehicle: saline): 77 % of control
- T/C (dose: 32.0 mg/kg/injection, schedule: Q01DX010 (ip), vehicle: saline): 48 % of control

SMILES: Nc1ncnc2n[nH]nc12
- T/C [4]: 60 % of control
- T/C (dose: 30.0 mg/kg/injection, schedule: Q01DX011 (ip), vehicle: saline): 85 % of control
- T/C [5]: 46 % of control
